Data from patent US20230027066A1 (Urovant Sciences GmbH, priority 2019, published 2023).

Test system: men and women with overactive bladder
Assay: Phase 3 study of vibegron 75 mg vs placebo and tolterodine ER 4 mg, 12 weeks, efficacy (voiding and urine volume diary)
Type: in vivo, human
Conditions: for Daily Urgency Episodes: Vibegron - Placebo LS Means Difference: 75 mg; for Daily Urgency Episodes: Reduction from Baseline at Week 12, LS Mean: vibegron 75 mg, tolterodine ER 4 mg; for Patients with 100% Reduction in UUI from Baseline to Week 12, Unadjusted n (%) / Patients with at Least 75% Reduction in UUI from Baseline to Week 12, Unadjusted n (%) / Patients with 100% Reduction in UUI from Baseline to Week 12, Adjusted n (%) / Patients with at Least 75% Reduction in UUI from Baseline to Week 12, Adjusted n (%): FAS-I; for Patients with 100% Reduction in UUI from Baseline to Week 12, Adjusted n (%) / Patients with at Least 75% Reduction in UUI from Baseline to Week 12, Adjusted n (%): MI for missing values; for 75% UUI responders, Active-Placebo CMH Difference / 100% UUI responders, Active-Placebo CMH Difference: stratified by sex; for Urgency, Change from Baseline LS Mean / Urgency, LS Mean Difference active - Placebo: baseline to Week 12
Method: Enrollment of patients included individuals with OAB Wet (those with UUI, the involuntary loss of urine accompanied by urgency) and OAB Dry (those without UUI). A total of 1,518 patients were randomized across 215 study sites into one of three groups for a 12-week treatment period.
The study consisted of a Screening Period (1 to 5 weeks), a single-blind Run-in Period (2 weeks), a randomized double-blind Treatment Period (12 weeks), and a Follow-up Period (4 weeks).
Tolterodine ER 4 mg was the active control. […] Between the Baseline and Week 12 Visits, patients had study assessments at Week 4 and Week 8.
The Patient Voiding Diary was used by participants (via the eDiary or paper Diary) to record the frequency of daily OAB symptoms including all micturitions, urgency, incontinence, and main reason for incontinence by selecting the respective box for each symptom occurring during the course of a given day and night.
Urine volume data were collected separately by patients using the Urine Volume component of the eDiary, or the paper Urine Volume Chart. The Urine Volume Chart is a tool used in clinical practice and clinical investigation to assess voiding functions over a 24-hour period and is regarded as a useful instrument in the investigation of patients with voiding symptoms. Urine volume may be collected during any one (1) of the 7 Diary Days prior to the visit, and it should be recorded for ˜24 hours starting from the time the patient gets up for the day and continues until the time the patient gets up for the day on the next day.
For the purpose of this study, the number of micturitions was defined as the number of times a patient has voided in the toilet as indicated on the Patient Voiding Diary. Average daily micturitions were calculated using the daily entries in the Patient Voiding Diary, which was completed over the 7 days prior to each study visit. Average daily number of micturitions were calculated as the total number of micturitions that occurred on a Complete Diary Day divided by the number of Complete Diary Days in the Patient Voiding Diary. A complete diary day required confirmation by the patient in the Patient Voiding Diary that all voids and leakages had been recorded for the diary day. Baseline was defined as the average number of micturitions occurring during the last evaluable diary prior to the Baseline Visit.
The number of UUI episodes was defined as the number of times a patient had checked “urge” as the reason for accidental urine leakage. Average daily UUI episodes at each study visit were calculated in the same manner as described above for the micturition endpoint. The UUI endpoint were analyzed using only OAB Wet patients.
For the analysis of the co-primary endpoints (change from baseline in average number of daily micturitions at Week 12 and change from baseline in average number of daily urge urinary incontinence episodes at Week 12, and placebo adjustment of each), a mixed model for repeated measure (MMRM) with restricted maximum likelihood estimation was used. This model corrects for dropout and accounts for the fact that measurements taken on the same patient over time tend to be correlated by using all available information on patients within the same covariate set to derive an estimate of the treatment effect for a dropout-free population. The analysis model for each efficacy endpoint includes terms for treatment, visit, OAB Type (Wet vs Dry), Sex (Female vs Male), Region (US vs Rest of World), baseline score, and interaction of visit by treatment.
Primary inferences were drawn from treatment differences for the changes from baseline derived from the MMRM models at Week 12. As part of secondary objectives, the treatment differences for each post baseline visit were also derived using the same MMRM model. […]

[1] = 50% Total Incontinence Responders, Week 2
[2] = 50% Total Incontinence Responders, Week 4
[3] = 50% Total Incontinence Responders, Week 8
[4] = 50% Total Incontinence Responders, Week 12
[5] = Dry population, baseline to Week 2

O=C(Nc1ccc(C[C@@H]2CC[C@H]([C@H](O)c3ccccc3)N2)cc1)[C@@H]1CCc2nccc(=O)n21 [Vibegron, (6S)-N-[4-[[(2S,5R)−5-[(R)-hydroxy(phenyl)methyl]pyrrolidin−2-yl]methyl]phenyl]−4-oxo−7,8-dihydro−6H-pyrrolo[1,2-a]pyrimidine−6-carboxamide]
Average Volume Voided per Micturition, Mean (SD) [1]: 173.8 (76.89) | Average daily number of urgency episodes, Mean (SD) [1]: 5.62 (3.792) | Change from Baseline in Average Daily Number of Urgency Episodes, LS Mean (SE) [1]: −2.1 (0.15) | Change from Baseline in Average Volume Voided per Micturition, LS Mean [1]: 16.1 (3.79) | Change from baseline in Percent Dry Diary Days, LS Mean [1]: 29.0 (2.11) Percent | Percent Dry Diary Days, Mean (SD) [1]: 34.64 (36.322) Percent | Average Volume Voided per Micturition, Mean (SD) [2]: 176.5 (81.31) | Average daily number of urgency episodes, Mean (SD) [2]: 5.01 (3.889) | Change from Baseline in Average Daily Number of Urgency Episodes, LS Mean (SE) [2]: −2.6 (0.16) | Change from Baseline in Average Volume Voided per Micturition, LS Mean [2]: 18.0 (3.99) | Change from baseline in Percent Dry Diary Days, LS Mean [2]: 37.8 (2.41) Percent | Percent Dry Diary Days, Mean (SD) [2]: 43.31 (41.468) Percent | Average Volume Voided per Micturition, Mean (SD) [3]: 182.0 (84.53) | Average daily number of urgency episodes, Mean (SD) [3]: 4.25 (3.833) | Change from Baseline in Average Daily Number of Urgency Episodes, LS Mean (SE) [3]: −3.4 (0.19) | Change from Baseline in Average Volume Voided per Micturition, LS Mean [3]: 24.2 (4.12) | Change from baseline in Percent Dry Diary Days, LS Mean [3]: 47.4 (2.45) Percent | Percent Dry Diary Days, Mean (SD) [3]: 53.01 (39.898) Percent | Average Volume Voided per Micturition, Mean (SD) [4]: (186.2 (84.24) | Average daily number of urgency episodes, Mean (SD) [4]: 3.67 (3.481) | Change from Baseline in Average Daily Number of Urgency Episodes, LS Mean (SE) [4]: −4.0 (0.20) | Change from Baseline in Average Volume Voided per Micturition, LS Mean [4]: 27.6 (4.24) | Change from baseline in Percent Dry Diary Days, LS Mean [4]: 55.5 (2.37) Percent | Percent Dry Diary Days, Mean (SD) [4]: 61.0 (37.857) Percent | Average Volume Voided per Micturition, Mean (SD) (75% UUI Responders, Week 2): 174.3 (77.29) | Average daily number of urgency episodes, Mean (SD) (75% UUI Responders, Week 2): 5.40 (3.762) | Change from Baseline in Average Volume Voided per Micturition, LS Mean (75% UUI Responders, Week 2): 17.7 (4.28) | Change from baseline in average daily number of urgency episodes, LS Mean (75% UUI Responders, Week 2): −2.2 (0.17) | Average Volume Voided per Micturition, Mean (SD) (75% UUI Responders, Week 4): 178.1 (82.51) | Average daily number of urgency episodes, Mean (SD) (75% UUI Responders, Week 4): 4.72 (3.838) | Change from Baseline in Average Volume Voided per Micturition, LS Mean (75% UUI Responders, Week 4): 20.7 (4.52) | Change from baseline in average daily number of urgency episodes, LS Mean (75% UUI Responders, Week 4): −2.7 (0.19) | Average Volume Voided per Micturition, Mean (SD) (75% UUI Responders, Week 8): 184.2 (87.70) | Average daily number of urgency episodes, Mean (SD) (75% UUI Responders, Week 8): 3.95 (3.742) | Change from Baseline in Average Volume Voided per Micturition, LS Mean (75% UUI Responders, Week 8): 27.2 (4.67) | Change from baseline in average daily number of urgency episodes, LS Mean (75% UUI Responders, Week 8): −3.5 (0.21) | Average Volume Voided per Micturition, Mean (SD) (75% UUI Responders, Week 12): 185.0 (87.89) | Average daily number of urgency episodes, Mean (SD) (75% UUI Responders, Week 12): 3.31 (3.433) | Change from Baseline in Average Volume Voided per Micturition, LS Mean (75% UUI Responders, Week 12): 26.9 (4.87) | Change from baseline in average daily number of urgency episodes, LS Mean (75% UUI Responders, Week 12): −4.2 (0.23) | Daily Urgency Episodes: Vibegron - Placebo LS Means Difference (Age ≥65 years, Week 12): −1.0 | Daily Urgency Episodes: Reduction from Baseline at Week 12, LS Mean (Age ≥65 years): −2.7 | Daily Urgency Episodes: Vibegron - Placebo LS Means Difference (Age ≥75 years, Week 12): −1.7 | Daily Urgency Episodes: Reduction from Baseline at Week 12, LS Mean (Age ≥75 years): −2.6 | Daily Urgency Episodes: Vibegron - Placebo LS Means Difference (All patients, Week 12): −0.7 | Daily Urgency Episodes: Reduction from Baseline at Week 12, LS Mean (All patients): −2.7 | Patients with 100% Reduction in UUI from Baseline to Week 12, Unadjusted n (%) (Baseline Number of UUI <3): 79 (35.4) n (%) | Patients with at Least 75% Reduction in UUI from Baseline to Week 12, Unadjusted n (%) (Baseline Number of UUI <3): 112 (50.2) n (%) | Patients with 100% Reduction in UUI from Baseline to Week 12, Adjusted n (%) (Baseline Number of UUI <3): 68 (30.4) n (%) | Patients with at Least 75% Reduction in UUI from Baseline to Week 12, Adjusted n (%) (Baseline Number of UUI <3): 101 (45.5) n (%) | 75% UUI responders, Active-Placebo CMH Difference (Baseline Number of UUI <3): 7.1 | 100% UUI responders, Active-Placebo CMH Difference (Baseline Number of UUI <3): 2.8 | Patients with 100% Reduction in UUI from Baseline to Week 12, Unadjusted n (%) (Baseline Number of UUI ≥3): 37 (20.6) n (%) | Patients with at Least 75% Reduction in UUI from Baseline to Week 12, Unadjusted n (%) (Baseline Number of UUI ≥3): 99 (55.0) n (%) | Patients with 100% Reduction in UUI from Baseline to Week 12, Adjusted n (%) (Baseline Number of UUI ≥3): 34 (19.1) n (%) | Patients with at Least 75% Reduction in UUI from Baseline to Week 12, Adjusted n (%) (Baseline Number of UUI ≥3): 98 (54.4) n (%) | 75% UUI responders, Active-Placebo CMH Difference (Baseline Number of UUI ≥3): 29.4 | 100% UUI responders, Active-Placebo CMH Difference (Baseline Number of UUI ≥3): 12.3 | Urgency, Change from Baseline LS Mean (Dry population, Age <65): −2.9 (64) | Urgency, LS Mean Difference active - Placebo (Dry population, Age <65): −1.4 | Urgency, Change from Baseline LS Mean (Dry population, Age ≥65): −2.2 (45) | Urgency, LS Mean Difference active - Placebo (Dry population, Age ≥65): −0.5 | Average daily number of urgency episodes, Mean (SD) (Dry population, Week 2): 6.98 (4.732) | Change from baseline in average daily number of urgency episodes, LS Mean (Dry population, Week 2): −1.5 (0.24) | Urgency episodes, Active - Placebo LS Mean Difference (Dry population, Week 2): −0.8 (0.35) | Average daily number of urgency episodes, Mean (SD) (Dry population, Week 4): 6.80 (4.667) | Change from baseline in average daily number of urgency episodes, LS Mean (Dry population, Week 4): −1.8 (0.26) | Urgency episodes, Active - Placebo LS Mean Difference (Dry population, Week 4): −0.9 (0.37) | Average daily number of urgency episodes, Mean (SD) (Dry population, Week 8): 6.39 (4.627) | Change from baseline in average daily number of urgency episodes, LS Mean (Dry population, Week 8): −2.2 (0.30) | Urgency episodes, Active - Placebo LS Mean Difference (Dry population, Week 8): −1.0 (0.44) | Average daily number of urgency episodes, Mean (SD) (Dry population, Week 12): 6.17 (4.958) | Change from baseline in average daily number of urgency episodes, LS Mean (Dry population, Week 12): −2.6 (0.33) | Urgency episodes, Active - Placebo LS Mean Difference (Dry population, Week 12): −1.0 (0.47) | Patients with at Least 50% Reduction in Urgency Episodes, Adjusted (%) [5]: 18.1% | Patients with at Least 50% Reduction in Urgency Episodes, Adjusted n [5]: 22 | Patients with at Least 50% Reduction in Urgency Episodes, Unadjusted (%) [5]: 18.7% | Patients with at Least 50% Reduction in Urgency Episodes, Unadjusted n [5]: 23 | Urgency 50% responders, Active - Placebo CMH Difference [5]: 4.7 | Patients with at Least 50% Reduction in Urgency Episodes, Adjusted (%) (Dry population, baseline to Week 4): 22.4%
